Laboratory results from the supplement of paper PMC4862054.

Key:
Details in all cases: incubation time: 72 h
[1] = system: BT-474; experiment: normalised response (% of control), CellTox Green; higher = less cell death (100 = DMSO, 0 = benzethonium chloride kill control)
In short: (§1)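 Breast cancer cell lines in 20 µl suspension were added to 384-well plates containing compound at 5 concentrations, spaced in 10-fold steps across a 10,000-fold range chosen for each compound, and incubated for 72 h. CellTox Green fluorescence was read at 485/520 nm, followed by CellTiter-Glo luminescence after 10 min at room temperature. Signals on each plate were normalised so that 0.1 % DMSO equals 100 and a positive kill control equals 0. Every value in the table is the normalised signal at one concentration of the series.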

[2] = system: BT-549; experiment: as above
In short: as §1

[3] = system: CAL-120; experiment: as above
In short: as §1

[4] = system: CAL-148; experiment: as above
In short: as §1

[5] = system: CAL-51; experiment: as above
In short: as §1

[6] = system: CAL-85-1; experiment: as above
In short: as §1

[7] = system: DU-4475; experiment: as above
In short: as §1

[8] = system: HCC1143; experiment: as above
In short: as §1

[9] = system: HCC1599; experiment: as above
In short: as §1

[10] = system: HCC1937; experiment: as above
In short: as §1

[11] = system: HDQ-P1; experiment: as above
In short: as §1

[12] = system: Hs578T; experiment: as above
In short: as §1

[13] = system: MCF-10A; experiment: as above
In short: as §1

[14] = system: MDA-MB-231; experiment: as above
In short: as §1

[15] = system: MDA-MB-436; experiment: as above
In short: as §1

[16] = system: MDA-MB-453; experiment: as above
In short: as §1

[17] = system: MDA-MB-468; experiment: as above
In short: as §1

[18] = system: BT-474; experiment: normalised response (% of control), CellTiter-Glo; higher = more viable cells (100 = DMSO, 0 = benzethonium chloride kill control)
In short: as §1

[19] = system: BT-549; experiment: as above
In short: as §1

[20] = system: CAL-120; experiment: as above
In short: as §1

[21] = system: CAL-148; experiment: as above
In short: as §1

[22] = system: CAL-51; experiment: as above
In short: as §1

[23] = system: CAL-85-1; experiment: as above
In short: as §1

[24] = system: DU-4475; experiment: as above
In short: as §1

[25] = system: HCC1143; experiment: as above
In short: as §1

[26] = system: HCC1599; experiment: as above
In short: as §1

[27] = system: HCC1937; experiment: as above
In short: as §1

[28] = system: HDQ-P1; experiment: as above
In short: as §1

[29] = system: Hs578T; experiment: as above
In short: as §1

[30] = system: MCF-10A; experiment: as above
In short: as §1

[31] = system: MDA-MB-231; experiment: as above
In short: as §1

[32] = system: MDA-MB-436; experiment: as above
In short: as §1

[33] = system: MDA-MB-453; experiment: as above
In short: as §1

[34] = system: MDA-MB-468; experiment: as above
In short: as §1

[35] = system: MFM-223; experiment: as above
In short: as §1

[36] = system: SK-BR-3; experiment: as above
In short: as §1

[37] = system: MFM-223; experiment: normalised response (% of control), CellTox Green; higher = less cell death (100 = DMSO, 0 = benzethonium chloride kill control)
In short: as §1

Structure (SMILES) | normalised response [1] | normalised response [2] | normalised response [3] | normalised response [4] | normalised response [5] | normalised response [6] | normalised response [7] | normalised response [8] | normalised response [9] | normalised response [10] | normalised response [11] | normalised response [12] | normalised response [13] | normalised response [14] | normalised response [15] | normalised response [16] | normalised response [17] | normalised response [18] | normalised response [19] | normalised response [20] | normalised response [21] | normalised response [22] | normalised response [23] | normalised response [24] | normalised response [25] | normalised response [26] | normalised response [27] | normalised response [28] | normalised response [29] | normalised response [30] | normalised response [31] | normalised response [32] | normalised response [33] | normalised response [34] | normalised response [35] | normalised response [36] | normalised response [37]
COc1cc(O)c2c(c1)/C=C/C[C@H](O)[C@H](O)C(=O)/C=C\C[C@H](C)OC2=O [(5Z)-7-Oxozeaenol] (1000 nM) | 99% | 79.5% | 102% | 15.5% | 115% | 35.6% | 74.4% | 129% | 103% | -12.2% | 66.1% | 64.6% | 103% | 57.4% | 112% | 103% | 140% | 71.5% | 40.3% | 94.2% | 79.5% | 106% | 42.8% | 8.27% | 96.9% | 92% | 76.1% | 71.5% | 91.1% | 56.9% | 72% | 81.3% | 118% | 56.5% | 90.4% | 115% | 
CNC(=O)c1ccc(N2C(=S)N(c3ccc(C#N)c(C(F)(F)F)c3)C(=O)C2(C)C)cc1F [Enzalutamide] (1000 nM) | 96% | 87% | 104% | 65.4% | 93.4% | 105% | 107% | 117% | 90.2% |  | 54.2% | 96.4% | 107% | 90.5% | 89.5% | 111% | 131% | 102% | 96.8% | 95.9% | 104% | 74.1% | 91.7% | 103% | 101% | 107% | 96.8% | 95.9% | 106% | 107% | 95.7% | 92.8% | 95.7% | 92.6% | 97.7% | 100% | 
COC(=O)c1ccc2c(c1)NC(=O)/C2=C(\Nc1ccc(N(C)C(=O)CN2CCN(C)CC2)cc1)c1ccccc1 [Nintedanib] (1000 nM) | 97.9% | 111% | 101% |  | 105% | 107% | 98.5% |  | 98.1% | 80.7% | 96% | 94.1% | 105% | 102% | 107% | 103% | 162% | 101% | 83.5% | 85.2% | 94.6% | 83.2% | 97.2% | 87.6% | 98.8% | 98.9% | 89.4% | 69.1% | 93.4% | 59.3% | 92% | 99.4% | 96.2% | 96.8% | 59.2% | 86% | 89.4%
CNC(=O)c1ccc(N2C(=S)N(c3ccc(C#N)c(C(F)(F)F)c3)C(=O)C23CCC3)cc1F [RD162] (1000 nM) | 96.8% | 101% | 101% | 102% | 107% | 118% | 104% |  | 96% | 83.1% | 114% | 85.7% | 120% | 108% | 111% | 90.8% | 96.5% | 95.3% | 93.7% | 99% | 103% | 115% | 96.7% | 103% | 98% | 126% | 94.6% | 94.9% | 104% | 102% | 101% | 98.2% | 98.9% | 97.3% | 102% | 110% | 
CO[C@H]1C[C@@H]2CC[C@@H](C)[C@@](O)(O2)C(=O)C(=O)N2CCCC[C@H]2C(=O)O[C@H]([C@H](C)C[C@@H]2CC[C@@H](OP(C)(C)=O)[C@H](OC)C2)CC(=O)[C@H](C)/C=C(\C)[C@@H](O)[C@@H](OC)C(=O)[C@H](C)C[C@H](C)/C=C/C=C/C=C/1C [Ridaforolimus] (10 nM) | 99.1% | 134% | 91.5% | 93.3% | 110% | 94.9% | 99.8% | 73% | 103% | 110% |  | 49.6% | 109% | 122% | 88.2% | 104% | 124% | 89.1% | 56% | 66.3% | 64.5% | 59.9% | 69.9% | 77% | 65% | 109% | 68.4% | 81.2% | 61.6% | 89.5% | 87.1% | 76% | 63.6% | 59.8% | 72.8% | 62.6% | 100%
S=P(N1CC1)(N1CC1)N1CC1 [Thio-TEPA] (5000 nM) | 100% | 109% | 100% | 102% | 29.6% | 95.8% | 99.2% | 62.1% | 93.5% | 109% | 96% | 85.2% | 109% | 109% | 94.6% | 101% |  | 94.4% | 91.7% | 96.5% | 93% | 68.9% | 97.2% | 102% | 96.1% | 112% | 96.4% | 99.5% | 108% | 100% | 96.2% | 97.4% | 109% | 100% | 105% | 105% | 98.8%
COc1cc2c(NC3CCN(C(C)C)CC3)nc(N3CCC(F)(F)CC3)nc2cc1OCCCN1CCCC1 [UNC0642] (10 nM) |  |  |  |  |  |  |  |  |  |  |  |  |  |  |  |  |  | 97.7% | 97.7% | 95.2% | 88.6% | 86.3% | 96.6% | 94.6% | 95.3% | 96.5% | 98.2% | 97.4% | 107% | 102% | 95.3% | 101% | 92% | 89% | 88.4% | 108% | 
COc1cc2/c(=N/c3ccc(Br)cc3F)nc[nH]c2cc1OCC1CCN(C)CC1 [Vandetanib] (0.1 nM) |  |  |  |  |  |  |  |  |  |  |  |  |  |  |  |  |  | 89.3% | 105% | 90.8% | 76.8% | 115% | 90.3% | 91% | 88.7% | 82.4% | 88.2% | 93.2% | 98.6% | 72.8% | 97.3% | 80.6% | 93.6% | 93.2% | 85.2% | 78% | 
COc1cc2/c(=N/c3ccc(Br)cc3F)nc[nH]c2cc1OCC1CCN(C)CC1 [Vandetanib] (100 nM) | 98% | 102% | 83% | 88.6% | 70.7% | 98.6% | 92% | 85.6% | 87% |  |  | 92% | 103% | 85.4% | 84.2% | 90.5% | 67.6% | 84.7% | 89% | 94.4% | 96.5% | 83.3% | 99.3% | 90.1% | 86.2% | 102% | 90.6% | 83% | 94.1% | 57.3% | 89.2% | 91.2% | 88% | 83.5% | 82.5% | 77.7% | 98.8%
COCC[n+]1c2c(n(Cc3cnccn3)c1C)C(=O)c1ccccc1C2=O [YM155] (10 nM) |  |  |  |  |  |  |  |  |  |  |  |  |  |  |  |  |  | 25.6% | 91.5% | 7.43% | 85% | 77.8% | 31.8% | 101% | 56.4% | 43.3% | 55.7% | 79.8% | 95.2% | 88.1% | 37.6% | 26.6% | 66.2% | 11.8% | 75.3% | 69.8% | 
